Data published in ChEMBL document CHEMBL4396896, “N-Aminoacyl and N-hydroxyacyl derivatives of diosgenyl 2-amino-2-deoxy-β-d-glucopyranoside: Synthesis, antimicrobial and hemolytic activities” (Bioorg Med Chem, 2019).
Values after ≈ are worked out from the molar mass of the structure shown.

Columns and labels:
[1] = system: Staphylococcus aureus; assay: Antibacterial activity against Staphylococcus aureus ATCC 25923 incubated in MHB II under aerobic condition for 18 hrs using initial inoculum of 5 x 10^5 CFU/ml by serial dilution method; assay type: functional; details: ATCC 25923, 18 h
[2] = system: Enterococcus faecalis; assay: Antibacterial activity against Enterococcus faecalis ATCC 29212 incubated in MHB II under aerobic condition for 18 hrs using initial inoculum of 5 x 10^5 CFU/ml by serial dilution method; assay type: functional; details: ATCC 29212, 18 h
[3] = system: Staphylococcus epidermidis; assay: Antibacterial activity against Staphylococcus epidermidis PCM 2118 incubated in MHB II under aerobic condition for 18 hrs using initial inoculum of 5 x 10^5 CFU/ml by serial dilution method; assay type: functional; details: PCM 2118, 18 h
[4] = system: Bacillus subtilis; assay: Antibacterial activity against Bacillus subtilis ATCC 6633 incubated in MHB II under aerobic condition for 18 hrs using initial inoculum of 5 x 10^5 CFU/ml by serial dilution method; assay type: functional; details: ATCC 6633, 18 h
[5] = system: Erythrocyte; assay: Haemolytic activity in human erythrocytes assessed as haemolytic index by measuring hemoglobin release at 0.5 to 128 mg/L incubated for 1 hr by microplate spectrophotometry relative to control; assay type: ADME, cell-based; details: erythrocyte, 1 h
[6] = system: Candida albicans; assay: Antifungal activity against Candida albicans ATCC 10231 incubated in sabouraud liquid medium under aerobic condition for 48 hrs using initial inoculum of 10^3 CFU/ml by serial dilution method; assay type: functional; details: ATCC 10231, 48 h
[7] = system: Yarrowia lipolytica; assay: Antifungal activity against Candida lipolytica PCM 2680 incubated in sabouraud liquid medium under aerobic condition for 48 hrs using initial inoculum of 10^3 CFU/ml by serial dilution method; assay type: functional; details: PCM 2680, 48 h
[8] = system: Proteus mirabilis; assay: Antibacterial activity against Proteus mirabilis PCM 543 incubated in MHB II under aerobic condition for 18 hrs using initial inoculum of 5 x 10^5 CFU/ml by serial dilution method; assay type: functional; details: PCM 543, 18 h
[9] = system: Escherichia coli; assay: Antibacterial activity against Escherichia coli ATCC 25922 incubated in MHB II under aerobic condition for 18 hrs using initial inoculum of 5 x 10^5 CFU/ml by serial dilution method; assay type: functional; details: ATCC 25922, 18 h
[10] = Haemolytic activity in human erythrocytes assessed as haemolytic index by measuring hemoglobin release at 128 mg/L incubated for 1 hr by microplate spectrophotometry; assay type: ADME, cell-based, Erythrocyte; details: read-out: HI
[11] = Haemolytic activity in human erythrocytes assessed as haemolytic index by measuring hemoglobin release at 32 mg/L incubated for 1 hr by microplate spectrophotometry; assay type: ADME, cell-based, Erythrocyte; details: read-out: HI
[12] = system: Pseudomonas aeruginosa; assay: Antibacterial activity against Pseudomonas aeruginosa ATCC 9027 incubated in MHB II under aerobic condition for 18 hrs using initial inoculum of 5 x 10^5 CFU/ml by serial dilution method; assay type: functional; details: ATCC 9027, 18 h
[13] = system: Klebsiella pneumoniae; assay: Antibacterial activity against Klebsiella pneumoniae ATCC 700603 incubated in MHB II under aerobic condition for 18 hrs using initial inoculum of 5 x 10^5 CFU/ml by serial dilution method; assay type: functional; details: ATCC 700603, 18 h
[14] = Haemolytic activity in human erythrocytes assessed as haemolytic index by measuring hemoglobin release at 64 mg/L incubated for 1 hr by microplate spectrophotometry; assay type: ADME, cell-based, Erythrocyte; details: read-out: HI
[15] = system: Erythrocyte; assay: Haemolytic activity in human erythrocytes assessed as hemoglobin release at 8 to 64 mg/L incubated for 1 hr by microplate spectrophotometry; assay type: ADME, cell-based
[16] = system: Candida albicans; assay: […] activity against Candida albicans ATCC 10231 by antimicrobial susceptibility based testing method; assay type: functional
[17] = system: Enterococcus faecalis; assay: microbe, parasite or virus in culture; details: ATCC 29212
Description: Antibacterial activity against Enterococcus faecalis ATCC 29212 by antimicrobial susceptibility based testing method

MIC [1]	MIC [2]	MIC [3]	MIC [4]	MIC [6]	MIC [7]	MIC [8]	MIC [9]	MIC [12]	MIC [13]	SMILES	Activity [5]	hemolysis at 1 h, 128 mg/L [10]	hemolysis at 1 h, 32 mg/L [11]	hemolysis at 1 h, 64 mg/L [14]	Activity [15]	MIC [16]	MIC [17]
16 µg/mL	16 µg/mL	16 µg/mL	8 µg/mL	2 µg/mL	1 µg/mL					C[C@@H]1CC[C@@]2(OC1)O[C@H]1C[C@H]3[C@@H]4CC=C5C[C@@H](O[C@@H]6O[C@H](CO)[C@@H](O)[C@H](O)[C@H]6N)CC[C@]5(C)[C@H]4CC[C@]3(C)[C@H]1[C@@H]2C.Cl	Non-Toxic						
4 µg/mL (≈ 5.94 µM)	4 µg/mL (≈ 5.94 µM)	4 µg/mL (≈ 5.94 µM)	8 µg/mL (≈ 11.9 µM)			> 128 µg/mL	> 128 µg/mL	> 128 µg/mL	> 128 µg/mL	C[C@@H]1CC[C@@]2(OC1)O[C@H]1C[C@H]3[C@@H]4CC=C5C[C@@H](O[C@@H]6O[C@H](CO)[C@@H](O)[C@H](O)[C@H]6NC(=O)[C@@H]6CCCN6)CC[C@]5(C)[C@H]4CC[C@]3(C)[C@H]1[C@@H]2C		100%	46%	100%			
128 µg/mL (≈ 178 µM)	> 128 µg/mL	128 µg/mL (≈ 178 µM)	64 µg/mL (≈ 89.1 µM)	64 µg/mL (≈ 89.1 µM)	32 µg/mL (≈ 44.6 µM)	> 128 µg/mL	> 128 µg/mL	> 128 µg/mL	> 128 µg/mL	C[C@@H]1CC[C@@]2(OC1)O[C@H]1C[C@H]3[C@@H]4CC=C5C[C@@H](O[C@@H]6O[C@H](CO)[C@@H](O)[C@H](O)[C@H]6NC(=O)[C@H](C)NC(=O)[C@H](C)N)CC[C@]5(C)[C@H]4CC[C@]3(C)[C@H]1[C@@H]2C		74%		57%			
64 µg/mL (≈ 101 µM)	64 µg/mL (≈ 101 µM)	64 µg/mL (≈ 101 µM)	64 µg/mL (≈ 101 µM)	64 µg/mL (≈ 101 µM)	64 µg/mL (≈ 101 µM)	> 128 µg/mL	> 128 µg/mL	> 128 µg/mL	> 128 µg/mL	C[C@@H]1CC[C@@]2(OC1)O[C@H]1C[C@H]3[C@@H]4CC=C5C[C@@H](O[C@@H]6O[C@H](CO)[C@@H](O)[C@H](O)[C@H]6NC(=O)CN)CC[C@]5(C)[C@H]4CC[C@]3(C)[C@H]1[C@@H]2C		16%			Toxic		
										C[C@@H]1[C@H](O)[C@@H](C)/C=C/C=C/C=C/C=C/C=C/C=C/C=C/[C@H](O[C@@H]2O[C@H](C)[C@@H](O)[C@H](N)[C@@H]2O)C[C@@H]2O[C@](O)(C[C@@H](O)C[C@@H](O)[C@H](O)CC[C@@H](O)C[C@@H](O)CC(=O)O[C@H]1C)C[C@H](O)[C@H]2C(=O)O [AMPHOTERICIN B]						0.5 µg/mL (≈ 0.541 µM)	
										CN[C@H](CC(C)C)C(=O)N[C@H]1C(=O)N[C@@H](CC(N)=O)C(=O)N[C@H]2C(=O)N[C@H]3C(=O)N[C@H](C(=O)N[C@H](C(=O)O)c4cc(O)cc(O)c4-c4cc3ccc4O)[C@H](O)c3ccc(c(Cl)c3)Oc3cc2cc(c3O[C@@H]2O[C@H](CO)[C@@H](O)[C@H](O)[C@H]2O[C@H]2C[C@](C)(N)[C@H](O)[C@H](C)O2)Oc2ccc(cc2Cl)[C@H]1O [VANCOMYCIN]							2 µg/mL (≈ 1.38 µM)
